The results in this text go back to paper PMC12279193 (Advanced Science, 2025).

In general, pIC50 refers to the negative decadic logarithm of the IC50, by convention in mol/L. Low readings indicate a large IC50, high ones a small IC50. For orientation: pKd means the Kd on a negative log10 scale, so that one unit is a factor of ten.

The target of one assay is SARS-CoV-2 S-RBD/ACE2 (Severe acute respiratory syndrome coronavirus 2, UniProt P0DTC2). Put plainly: NanoBiT RBD/ACE2 interaction assay in HEK293 cells. The assay is classed as cell-based.
Assay [1] concerns the target recombinant SARS-CoV-2 S-trimer protein; trimeric spike protein (Severe acute respiratory syndrome coronavirus 2, UniProt P0DTC2). Put plainly: SPR (Biacore T200), spike trimer immobilised on CM5 chip. The assay is classed as binding.

Structures are written as SMILES. pIC50, pKd: −log10 of the molar value.

In turn, `CN(/N=C/c1ccccc1C(=O)O)c1nc(-c2ccccc2Cl)cs1` [S416] showed a pIC50 on SARS-CoV-2 S-RBD/ACE2 of 5.40. Further, in assay [1], the pKd is 5.16.
